Results published in patent US20050101595A1, “N-containing cycloalkyl-substituted amino-thiazole derivatives and pharmaceutical compositions for inhibiting cell proliferation and methods for their use” (PFIZER INC., priority 2003, published 2005).
Counter-ions that a name gives are not always drawn. Like-named read-outs stand apart in the source and are kept apart here.

Assays:
[1] = target: CDK2/Cyclin A (Homo sapiens, UniProt P24941); test: Inhibition of CDK2/Cyclin A Retinoblastoma Kinase Activity; type: biochemical; details: for Ki: apparent Ki, CDK2/proteolyzed cyclin A, Rb fragment substrate, 25 μM ATP; for CDK2 % Inhibition At 0.03 μM: Table 2
Method in brief: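 Percent inhibition is calculated against DMSO-only wells after subtracting no-enzyme background. The enzyme is human CDK2 complexed with proteolyzed cyclin A, used at 10 nM or 19 nM on an Rb fragment with 25 μM [32/33P]ATP, at pH 7.4 and 30° C.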

[2] = system: HCT-116 cell line; test: Inhibition of cell growth, tetrazolium salt (MTT) assay; type: cell-based; details: for HCT-116 % Inhibition at 0.25 μM: 0.25 μM compound; for IC50: Homo sapiens, HCT-116, 120 h, MTT, three to five days, read-out: HCT-116 IC50
Method in brief: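 MTT colorimetric viability: three-to-five-day compound exposure in 0.5% (v/v) DMSO at 37° C, MTT 0.2 mg/mL for the last 4 h, A540 compared with vehicle-treated cells.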

[3] = target: human CDK4 and genetically truncated (1-264) cyclin D3 (Homo sapiens, UniProt P11802); test: Inhibition of CDK4/Cyclin D Retinoblastoma Kinase Activity; type: biochemical; details: for Ki: apparent Ki, CDK4/truncated cyclin D3, Rb fragment substrate, 25 μM ATP
Sequence of human CDK4 and genetically truncated (1-264) cyclin D3 (P11802 whole entry, the tested form may be a part): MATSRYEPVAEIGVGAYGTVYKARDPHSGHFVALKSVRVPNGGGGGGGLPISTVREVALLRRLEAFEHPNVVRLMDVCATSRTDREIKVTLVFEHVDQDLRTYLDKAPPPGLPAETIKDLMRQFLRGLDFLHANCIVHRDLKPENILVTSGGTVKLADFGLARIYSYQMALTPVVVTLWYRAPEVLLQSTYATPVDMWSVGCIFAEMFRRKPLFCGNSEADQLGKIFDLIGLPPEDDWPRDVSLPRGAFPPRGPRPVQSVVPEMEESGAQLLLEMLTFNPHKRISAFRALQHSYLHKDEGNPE
Sequence of human CDK4 and genetically truncated (1-264) cyclin D3 (P30281 1-264 partner): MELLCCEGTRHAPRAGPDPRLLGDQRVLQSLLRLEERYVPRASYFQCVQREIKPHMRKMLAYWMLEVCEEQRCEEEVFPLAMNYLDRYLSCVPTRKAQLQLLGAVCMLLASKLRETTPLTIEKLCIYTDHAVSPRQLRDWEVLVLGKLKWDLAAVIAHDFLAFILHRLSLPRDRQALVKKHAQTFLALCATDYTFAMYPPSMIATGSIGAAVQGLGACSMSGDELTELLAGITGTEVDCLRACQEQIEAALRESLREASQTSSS
Method in brief: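 Apparent Ki values derive from fitting activity at varied inhibitor concentrations to a competitive (or competitive tight-binding) model. Kinase reactions used 5 nM CDK4/cyclin D3(1-264), Rb fragment substrate and 25 μM ATP. Incubation ran 20 min at 30 °C, extended to 60 min under linear conditions for tight binders.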

[4] = 0.1 μM compound, HCT-116, Table 3
[5] = 0.1 μM compound, HCT-116, Table 4
[6] = 0.03 μM compound, Table 4, 0.03 µM

Cc1ccc(S(=O)(=O)N2CCC(Nc3nc(N)c(C(=O)c4c(F)cccc4F)s3)CC2)cc1 [Example P23]
CDK2 % Inhibition at 0.03 μM ([1]; 0.03 μM compound, Table 3): 64% | HCT-116 % Inhibition at 0.1 μM [2, 4]: 19% | HCT-116 % Inhibition at 0.25 μM ([2]; HCT-116, Table 3): 32% | CDK4 % Inhibition at 0.03 μM ([3]; 0.03 μM compound, Table 3): 67%

CCC(C)CC(=O)N1CCC(Nc2nc(N)c(C(=O)c3c(F)cccc3F)s2)CC1 (stereo not drawn) [Example R171]
CDK2 % Inhibition at 0.03 μM ([1]; at 0.03 μM): 23% | HCT-116 % Inhibition at 0.1 μM ([2]; HCT-116 cells, at 0.1 μM): 0% | HCT-116 5 Inhibition at 0.25 μM ([2]; HCT-116 cells): 46 | CDK4 % Inhibition at 0.03 μM ([3]; at 0.03 μM): 39%

Nc1nc(NC2CCN(S(=O)(=O)c3ccc(Br)cc3)CC2)sc1C(=O)c1c(F)cccc1F [Example P12]
CDK2 % Inhibition at 0.03 μM ([1]; 0.03 μM compound, Table 3): 54% | HCT-116 % Inhibition at 0.1 μM [2, 4]: 24% | HCT-116 % Inhibition at 0.25 μM ([2]; HCT-116, Table 3): 29% | CDK4 % Inhibition at 0.03 μM ([3]; 0.03 μM compound, Table 3): 54%

Nc1nc(NC2CCN(C(=O)[C@@H]3CCC(=O)O3)CC2)sc1C(=O)c1c(F)cccc1F [Example D5, 5S-[1{-4-[4-Amino-5-(2,6-difluoro-benzoyl)-thiazol-2-ylamethano]-piperidin-1-yl}-methanoyl]-tetrahydro-furan-2-one]
Ki [1]: 0.0064 µM | IC50 ([2]; first HCT-116 column (c4)): > 5 µM | IC50 ([2]; second HCT-116 column (c5)): > 5 µM | Ki [3]: 0.0068 µM

Nc1nc(NC2CCN(S(=O)(=O)c3ccc(-c4c[nH]cn4)cc3)CC2)sc1C(=O)c1c(F)cccc1F [Example F30, 1-(4-Amino-2-{1-[4-(1H-imidazol-4-y)-benzenesulfonyl]-piperidin-4-ylamino}-thiazol-5-yl)-1-(2,6-difluoro-phenyl)-methanone Trifluoroacetic Acid Salt]
Ki [1]: 0.00025 µM | IC50 ([2]; first HCT-116 column (c4)): 0.17 µM | IC50 ([2]; second HCT-116 column (c5)): 1.7 µM | Ki [3]: 0.00032 µM

Cc1ccc(Oc2ncccc2C(=O)N2CCC(Nc3nc(N)c(C(=O)c4c(F)cccc4F)s3)CC2)cc1 [Example R45]
CDK2 % Inhibition at 0.03 μM ([1]; at 0.03 μM): 37% | HCT-116 % Inhibition at 0.1 μM ([2]; HCT-116 cells, at 0.1 μM): 2% | HCT-116 5 Inhibition at 0.25 μM ([2]; HCT-116 cells): 36 | CDK4 % Inhibition at 0.03 μM ([3]; at 0.03 μM): 49%

CC(C)S(=O)(=O)c1csc(C(=O)N2CCC(Nc3nc(N)c(C(=O)c4c(F)cccc4F)s3)CC2)c1Cl [Example C5, (4-Amino-2-{1-[3-chloro-4-(propane-2-sulfonyl)-thiophene-2-carbonyl]-piperidin-4-ylamino}-thiazol-5-yl)-(2,6-difluoro-phenyl)-methanone]
Ki [1]: 0.081 µM | IC50 ([2]; first HCT-116 column (c4)): 1.9 µM | IC50 ([2]; second HCT-116 column (c5)): 4 µM | Ki [3]: 0.008 µM

Nc1nc(NC2CCN(C(=O)[C@@H]3C[C@H]3c3ccccc3)CC2)sc1C(=O)c1c(F)cccc1F (relative stereo) [Example Q55]
CDK2 % Inhibition at 0.03 μM ([1]; 0.03 μM compound, Table 4): 29% | HCT-116 % Inhibition at 0.1 μM [2, 5]: 10% | HCT-116 % Inhibition at 0.25 μM ([2]; HCT-116, Table 4): 31% | CDK4 % Inhibition at 0.03 μM ([3]; 0.03 μM compound, Table 4): 43%

COc1ccc(OC)c(NC(=O)N2CCC(Nc3nc(N)c(C(=O)c4c(F)cccc4F)s3)CC2)c1 [Example O9]
CDK2 % Inhibition At 0.03 μM ([1]; 0.03 μM compound): 35% | HCT-116 % Inhibition at 0.25 μM ([2]; HCT-116, Table 2): 13% | CDK4 % Inhibition at 0.03 μM ([3]; 0.03 μM compound, Table 2): 2%

Nc1nc(NC2CCN(C(=O)C(=O)c3c[nH]c4ccccc34)CC2)sc1C(=O)c1c(F)cccc1F [Example R5]
CDK2 % Inhibition at 0.03 μM ([1]; at 0.03 μM): −31% | HCT-116 % Inhibition at 0.1 μM ([2]; HCT-116 cells, at 0.1 μM): 13% | HCT-116 5 Inhibition at 0.25 μM ([2]; HCT-116 cells): 49 | CDK4 % Inhibition at 0.03 μM ([3]; at 0.03 μM): 9%

N#Cc1ccccc1S(=O)(=O)N1CCC(Nc2nc(N)c(C(=O)c3c(F)cccc3F)s2)CC1 [Example F9, 2-{4-[4-Amino-5-(2,6-difluoro-benzoyl)-thiazol-2-ylamino]-piperidine-1-sulfonyl}-benzonitrile]
Ki [1]: 0.002 µM | IC50 ([2]; first HCT-116 column (c4)): 0.14 µM | IC50 ([2]; second HCT-116 column (c5)): 0.25 µM | Ki [3]: 0.0036 µM

CCCCc1ccc(C(=O)N2CCC(Nc3nc(N)c(C(=O)c4c(F)cccc4F)s3)CC2)cc1 [Example Q36]
CDK2 % Inhibition at 0.03 μM ([1]; 0.03 μM compound, Table 4): 16% | HCT-116 % Inhibition at 0.1 μM [2, 5]: 0.49% | HCT-116 % Inhibition at 0.25 μM ([2]; HCT-116, Table 4): 31% | CDK4 % Inhibition at 0.03 μM ([3]; 0.03 μM compound, Table 4): 45%

Nc1nc(NC2CCN(C(=O)c3ccc4c(c3)C(=O)OC4=O)CC2)sc1C(=O)c1c(F)cccc1F [Example Q66]
CDK2 % Inhibition at 0.03 μM ([1]; 0.03 μM compound, Table 4): 7% | HCT-116 % Inhibition at 0.1 μM [2, 5]: 7% | HCT-116 % Inhibition at 0.25 μM ([2]; HCT-116, Table 4): 34% | CDK4 % Inhibition at 0.03 μM ([3]; 0.03 μM compound, Table 4): 29%

Nc1nc(NC2CCN(C(=O)CCOc3ccccc3)CC2)sc1C(=O)c1c(F)cccc1F [Example R173]
CDK2 % Inhibition at 0.03 μM ([1]; at 0.03 μM): 23% | HCT-116 % Inhibition at 0.1 μM ([2]; HCT-116 cells, at 0.1 μM): 0% | HCT-116 5 Inhibition at 0.25 μM ([2]; HCT-116 cells): 43 | CDK4 % Inhibition at 0.03 μM ([3]; at 0.03 μM): 43%

CCc1ccc(C(=O)N2CCC(Nc3nc(N)c(C(=O)c4c(F)cccc4F)s3)CC2)cc1 [Example R157]
CDK2 % Inhibition at 0.03 μM ([1]; at 0.03 μM): 22% | HCT-116 % Inhibition at 0.1 μM ([2]; HCT-116 cells, at 0.1 μM): 0% | HCT-116 5 Inhibition at 0.25 μM ([2]; HCT-116 cells): 42 | CDK4 % Inhibition at 0.03 μM ([3]; at 0.03 μM): 47%

Nc1nc(NC2CCN(S(=O)(=O)c3ccc(O)c(C(=O)O)c3)CC2)sc1C(=O)c1c(F)cccc1F [Example P58]
CDK2 % Inhibition at 0.03 μM ([1]; 0.03 μM compound, Table 3): −16% | HCT-116 % Inhibition at 0.1 μM [2, 4]: 14% | HCT-116 % Inhibition at 0.25 μM ([2]; HCT-116, Table 3): 30% | CDK4 % Inhibition at 0.03 μM ([3]; 0.03 μM compound, Table 3): 15%

CN1CC[C@@H](c2ccc(S(=O)(=O)N3CCC(Nc4nc(N)c(C(=O)c5c(F)cccc5F)s4)CC3)cc2)C1 [Example F53, (4-Amino-2-{1-[4-(1-methyl-pyrrolidin-3S-yl)-benzenesulfonyl]-piperidin-4-ylamino}-thiazol-5-yl)-(2,6-difluoro-phenyl)-methanone]
Ki [1]: 0.0013 µM | IC50 ([2]; first HCT-116 column (c4)): 0.09 µM | IC50 ([2]; second HCT-116 column (c5)): 0.5 µM | Ki [3]: 0.00061 µM

Nc1nc(NC2CCN(C(=O)c3cccs3)CC2)sc1C(=O)c1c(F)cccc1F [Example Q61]
CDK2 % Inhibition at 0.03 μM [1, 6]: 41% | HCT-116 % Inhibition at 0.1 μM ([2]; 0.1 μM compound, HCT-116, Table 4, 0.1 µM): 0% | HCT-116 % Inhibition at 0.25 μM ([2]; HCT-116, Table 4, 0.25 µM): 34% | CDK4 % Inhibition at 0.03 μM [3, 6]: 49%

CCOC(=O)NC(=O)N1CCC(Nc2nc(N)c(C(=O)c3c(F)cccc3F)s2)CC1 [Example O38]
CDK2 % Inhibition At 0.03 μM ([1]; 0.03 μM compound): 29% | HCT-116 % Inhibition at 0.25 μM ([2]; HCT-116, Table 2): 29% | CDK4 % Inhibition at 0.03 μM ([3]; 0.03 μM compound, Table 2): 15%

CC(C)S(=O)(=O)c1csc(C(=O)N2CCC(Nc3nc(N)c(C(=O)c4c(F)cccc4F)s3)CC2)c1Cl [Example R62]
CDK2 % Inhibition at 0.03 μM ([1]; at 0.03 μM): 65% | HCT-116 % Inhibition at 0.1 μM ([2]; HCT-116 cells, at 0.1 μM): 0% | HCT-116 5 Inhibition at 0.25 μM ([2]; HCT-116 cells): 38 | CDK4 % Inhibition at 0.03 μM ([3]; at 0.03 μM): 78%

Nc1nc(NC2CCN(C(=O)c3ccccc3[N+](=O)[O-])CC2)sc1C(=O)c1c(F)cccc1F [Example Q68]
CDK2 % Inhibition at 0.03 μM ([1]; 0.03 μM compound, Table 4): 41% | HCT-116 % Inhibition at 0.1 μM [2, 5]: 4% | HCT-116 % Inhibition at 0.25 μM ([2]; HCT-116, Table 4): 33% | CDK4 % Inhibition at 0.03 μM ([3]; 0.03 μM compound, Table 4): 51%

CNc1ccc(C(=O)N2CCC(Nc3nc(N)c(C(=O)c4c(F)cccc4F)s3)CC2)cc1 [Example R147]
CDK2 % Inhibition at 0.03 μM ([1]; at 0.03 μM): 63% | HCT-116 % Inhibition at 0.1 μM ([2]; HCT-116 cells, at 0.1 μM): 0% | HCT-116 5 Inhibition at 0.25 μM ([2]; HCT-116 cells): 41 | CDK4 % Inhibition at 0.03 μM ([3]; at 0.03 μM): 78%

Nc1nc(NC2CCN(Cc3ccccn3)CC2)sc1C(=O)c1c(F)cccc1F [Example M1, 1-[4-Amino-2-(1-pyridin-2-ylmethyl-piperidin-4-ylamino)-thiazol-5-yl]-1-(2,6-difluoro-phenyl)-methanone]
Ki [1]: > 0.5 µM | IC50 ([2]; first HCT-116 column (c4)): 2.8 µM | IC50 ([2]; second HCT-116 column (c5)): 5 µM | Ki [3]: 0.24 µM

CC(NC(=O)N1CCC(Nc2nc(N)c(C(=O)c3c(F)cccc3F)s2)CC1)c1cccc2ccccc12 (stereo not drawn) [Example O67]
CDK2 % Inhibition At 0.03 μM ([1]; 0.03 μM compound): 31% | HCT-116 % Inhibition at 0.25 μM ([2]; HCT-116, Table 2): 50% | CDK4 % Inhibition at 0.03 μM ([3]; 0.03 μM compound, Table 2): 8%

CCOC(=O)CCCCCNC(=O)N1CCC(Nc2nc(N)c(C(=O)c3c(F)cccc3F)s2)CC1 [Example O70]
CDK2 % Inhibition At 0.03 μM ([1]; 0.03 μM compound): 28% | HCT-116 % Inhibition at 0.25 μM ([2]; HCT-116, Table 2): 52% | CDK4 % Inhibition at 0.03 μM ([3]; 0.03 μM compound, Table 2): 7%
